Paper PMC11871066, “Structure-based discovery of hydrocarbon-stapled paxillin peptides that block FAK scaffolding in cancer” (Nature Communications, 2025)
Read-outs that look alike come from different tables or passages of the source. Bridge positions count the residues as written; N and C are the ends. Square brackets hold non-standard residues; d marks the D form. Peptide text beside a SMILES is read from it. * marks the point of attachment. Myristoyl = CCCCCCCCCCCCCC(=O)*; R8 = C=CCCCCCC[C@@](C)(N)C(=O)O; S5 = C=CCCC[C@](C)(N)C(=O)O

Experiments:
[1] = mouse
[2] = mouse, in vivo, ip
Protocol: (§4) Cell permeability of peptide drugs was determined by fluorescence measurement of TAMRA-labeled peptides in 96-well plates and ClarioStar Plus plate reader using BMG ClarioStar MARS software (version 4.20). […] Percent uptake was calculated as background-subtracted fluorescence absorbed by cells/fluorescence of peptide in media-only wells, then made relative to TAMRA-Alkyne. Three biological replicates (n = 3) were performed per cell line per treatment group. Peptide proteolysis was measured using immobilized Trypsin-agarose resin (Thermo Fisher) and quantification by LC-MS. […] In vivo pharmacokinetics were performed by the UACC Analytical Chemistry Shared Resource. […] The mice were fed NIH-31 irradiated pellets (Tekland Premier, Madison, Wisconsin), and reverse osmosis water was freely available. […] The average plasma concentration versus time data were analyzed using PKSolver (version 2.0) by a noncompartmental approach.

in vivo = conditions: female, Balb/cJ, mouse, ip
Protocol: as §4

trypsin [3] = test: in vitro; conditions: isolated enzyme trypsin
Protocol: as §4

in vitro = conditions: plasma
[4] = Liver microsomal stability; conditions: human liver microsomes
[5] = biological target: 97 kinases (kinase named in endpoint) (Homo sapiens, UniProt P53350); test: Eurofins KINOMEscan profiling, 97 kinases; conditions: read-out: % Ctrl, PLK1
97 kinases (kinase named in endpoint) (Homo sapiens, UniProt P53350), sequence (P53350 whole entry): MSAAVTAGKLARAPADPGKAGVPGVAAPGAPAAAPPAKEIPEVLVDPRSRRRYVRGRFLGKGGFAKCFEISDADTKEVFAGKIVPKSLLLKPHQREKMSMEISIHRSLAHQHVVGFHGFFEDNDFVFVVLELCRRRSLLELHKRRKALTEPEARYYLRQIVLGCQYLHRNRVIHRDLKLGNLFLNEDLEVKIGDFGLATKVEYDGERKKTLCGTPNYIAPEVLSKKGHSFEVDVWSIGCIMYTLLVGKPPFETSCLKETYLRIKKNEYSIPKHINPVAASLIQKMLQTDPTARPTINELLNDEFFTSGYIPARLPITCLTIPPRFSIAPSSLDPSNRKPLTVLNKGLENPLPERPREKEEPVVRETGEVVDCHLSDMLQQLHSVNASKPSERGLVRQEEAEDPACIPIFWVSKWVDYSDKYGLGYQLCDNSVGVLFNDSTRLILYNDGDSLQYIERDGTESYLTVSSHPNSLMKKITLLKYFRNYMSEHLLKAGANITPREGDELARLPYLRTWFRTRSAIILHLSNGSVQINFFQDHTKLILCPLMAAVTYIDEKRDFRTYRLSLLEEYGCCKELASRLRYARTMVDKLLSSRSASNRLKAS
Protocol: (§5) This experiment was performed by Eurofins KINOMEscan™ Profiling Service. […] The lysates were centrifuged and filtered, the remaining kinases were produced in HEK-293 cells and subsequently tagged with DNA for qPCR detection. […] The liganded beads were blocked with excess biotin and washed with blocking buffer (SeaBlock (Pierce), 1% BSA, 0.05% Tween-20, 1 mM DTT). […] Test compounds were prepared as 100x stocks in 100% DMSO and directly diluted into the assay. All reactions were performed in polypropylene 384-well plates in a final volume of 0.02 ml. […] The kinase concentration in the eluates was measured by qPCR.
(§6) (negative control signal - positive control signal)] x 100. ( b) AccompanyingSelectivity Scores or S -scores
(§7) which are quantitative measures of compound selectivity. They are calculated by dividing the number of
(§8) kinases that compounds bind to by the total number of distinct kinases tested, excluding mutant variants.
(§9) S(35)= ( num ber of non -mutant kinases with %Ctrl <35)/(number of non- mutant kinases tested)], S(10)=
(§10) non- mutant kinases with %Ctrl <1)/(number of non- mutant kinases tested)].

[6] = In vivo pharmacokinetics, single i.p. administration; conditions: Cmax vs IC50 0.8 µM
Protocol: as §4

[7] = system: FAK/paxillin focal adhesions in SK-MEL-147 cells; test: cells; format: cell-based, human; conditions: 48 h
Protocol: SK-MEL-147 cells were collected and seeded into the inner 60 wells of 96-well, black-walled plates (Agilent, 204626-100) at 1000 cells per well in 100 uL of complete DMEM overnight in a 37 °C incubator with 5% CO2. The next day, the serum-containing media was removed from each well and cells were washed with PBS before treating the cells in serum-free DMEM and 0.5% DMSO for 48 h. After treatment, cells were pre-fixed with 4% paraformaldehyde diluted in 1x PBS being added directly to the culture medium for 2 min. Pre-fixation media was then removed, and 4% paraformaldehyde diluted in 1X PBS was added to each well for 3 min at room temperature. Fixative was then removed and neutralized twice with 100 mM Tris Buffered Saline in MilliQ water and then washed once with 0.1% Tween-20 in PBS. Cells were permeabilized with 0.5% Triton-X 100 in PBS for 5 min at room temperature, then the permeabilization buffer was removed, and cells were washed twice with 0.1% Tween-20 in PBS. Cells were then blocked with 10% Goat Serum in PBS for 1 h at room temperature. […] Antibody stain was then removed, and cells were washed twice with 0.1% Tween-20 in PBS. […] Cells were then washed twice with 0.1% Tween-20 in PBS and DAPI stain (Sigma-Aldrich, D9542-5MG, 1 mg/mL) diluted 1:40,000 in PBS in the dark for 5 min at room temperature. DAPI stain was then removed, and cells were washed twice with 0.1% Tween-20 in PBS, then twice with PBS for 5 min per wash on an orbital shaker. Plates were then imaged on the BioTek Cytation C10 Confocal Imaging Reader. Three fields of view were taken per well per run and analyzed in the accompanying Agilent BioTek Gen5 Software (version 3.16). The following software parameters were used to quantify FAK-containing, paxillin-containing, and FAK/paxillin-containing focal adhesions: area (0.25–33); circularity (<0.602); FAK signal to noise ratio (>2.55), FAK integrated density (SKMEL147 > 4200; WM88 >9400), paxillin signal to noise ratio (>4.5), paxillin integrated density (>8000), presence of F-actin (phalloidin) staining; and limited proximity to DAPI staining (integrated density <4000).

SK-MEL-147 cells = test: LDH release assay; format: cell-based, human; conditions: 100 μM to 200 nM, 45 min, n = 3
Protocol: (§1) Non-specific membrane disruption was assessed quantitatively by measuring the lactate dehydrogenase (LDH) activity in the medium using the cytoscan-LDH cytotoxicity assay kit (G-Biosciences Inc., St Louis, Mo, USA). SK-MEL-147 and WM88 human melanoma cells were plated in 96-well white-walled plates at 5k cells/well in 90 uL of serum complete DMEM and returned to a 37 °C incubator with 5% CO2 overnight. The cells were then treated in triplicate with 2012, 2020 (negative control), and Gambogic Acid (positive control) at titrating concentrations ranging from 100 μM to 200 nM and allowed to incubate for 45 min in a 37 °C incubator with 5% CO2. About 50 µl of supernatant was transferred from each well to a new flat-bottom 96-well white-walled plate and mixed with 50 µl of recombinant substrate mixture. This reaction was allowed to occur at room temperature for 30 min protected from light. Then, 50 µl of stop solution was added to terminate the reaction. […] Results were reported as 490 nm values […], averaged, three biological replicates were repeated per cell line, and graphs were generated using GraphPad Prism (version 10.3.1), reporting mean LDH activity ± SD.
(§2) LDH release assay preformed in human melanoma
(§3) Acid (pos. control) at titrating concentrations ranging from 100 μ M to 200 nM for 45 minutes. […]

WM88 cells = test: LDH release assay; format: cell-based, human; conditions: 100 μM to 200 nM, 45 min, n = 3
Protocol: as §1, §2, §3

trypsin [8] = test: Trypsin proteolytic resistance assay; conditions: immobilized trypsin-agarose resin
Protocol: as §4

kinases = conditions: 1 µM, ref Cromm et al, 2018; cited from earlier work
Protocol: page 11: Comment 5: Reviewer Comment: “Line 299: “indicating potential [defactinib] toxicity beyond the 2.5 μM”. […] The high non- selectivity of defactinib at low micromolar doses indicates the potential of off-target effects and toxicity beyond 2.5 µM.

[9] = system: 97 kinases (kinase named in endpoint); test: Eurofins KINOMEscan profiling, 97 kinases; conditions: 1 µM
Protocol: as §5, §6, §7, §8, §9, §10

Which “plasma stability t1/2” value [1] does the source give for `CCCCCCCCCCCCCC(=O)N[C@@H](CC(N)=O)C(=O)N[C@@H](CC(C)C)C(=O)N[C@]1(C)CCCCCCC=CCCC[C@@](C)(C(=O)N[C@@H](CCC(=O)O)C(=O)N[C@@H](CC(C)C)C(=O)N[C@@H](CC(N)=O)C(N)=O)NC(=O)[C@H](CC(C)C)NC(=O)[C@H](CC(C)C)NC(=O)[C@H](CCCNC(=N)N)NC(=O)[C@H](CC(=O)O)NC(=O)[C@H](CC(C)C)NC(=O)[C@H](CCC(=O)O)NC1=O` [compound 2012] here?
The value was over 2 h.

And the “Cmax, molar concentration” value [2]?
The value was 48.5 µM.

And the plasma clearance [2]?
Its plasma clearance is 0.26 mL/min/kg.

And the Cmax (in vivo)?
Its Cmax is 89.4 µg/mL.

What about the half-life (in vivo) of the same molecule?
The half-life was 16.5 h.

What about the level at 0.5 h (in vivo; 2012 concentration) of the same molecule?
The level at 0.5 h was 11.4 µg/mL.

What about the remaining at 0.25 h, 100 µM (trypsin [3]) of the same molecule?
The remaining at 0.25 h, 100 µM was 91%.

What about the remaining at 0.5 h, 100 µM (trypsin [3]) of the same molecule?
The remaining at 0.5 h, 100 µM was 108%.

And the remaining at 1 h, 100 µM (trypsin [3])?
The remaining at 1 h, 100 µM was 102%.

And the remaining at 2 h, 100 µM (trypsin [3])?
Its remaining at 2 h, 100 µM is 85%.

And the remaining at 3 h, 100 µM (trypsin [3])?
The remaining at 3 h, 100 µM was 104%.

What about the remaining at 4 h, 100 µM (trypsin [3]) of the same molecule?
The remaining at 4 h, 100 µM was 91%.

And the remaining at 6 h, 100 µM (trypsin [3])?
The remaining at 6 h, 100 µM was 93%.

What about the remaining at 8 h, 100 µM (trypsin [3]) of the same molecule?
The remaining at 8 h, 100 µM was 111%.

What about the remaining at 24 h, 100 µM (trypsin [3]) of the same molecule?
Its remaining at 24 h, 100 µM is 97%.

And the remaining at 48 h, 100 µM (trypsin [3])?
Its remaining at 48 h, 100 µM is 89%.

And the fraction unbound (in vitro)?
Its fraction unbound is under 0.01.

What about the “remaining in liver microsomes” value ([4]; 0 min, Rep1) of the same molecule?
Its value is 98.

What about the “remaining in liver microsomes” value ([4]; 0 min, Rep2) of the same molecule?
Its value is 102.

What about the “remaining in liver microsomes” value ([4]; 5 min, Rep1) of the same molecule?
Its value is 98.

What about the “remaining in liver microsomes” value ([4]; 5 min, Rep2) of the same molecule?
Its value is 94.

What about the “remaining in liver microsomes” value ([4]; 15 min, Rep1) of the same molecule?
The value was 100.

And the “remaining in liver microsomes” value ([4]; 15 min, Rep2)?
Its value is 98.

What about the “remaining in liver microsomes” value ([4]; 30 min, Rep1) of the same molecule?
Its value is 100.

And the “remaining in liver microsomes” value ([4]; 30 min, Rep2)?
The value was 101.

And the “remaining in liver microsomes” value ([4]; 60 min, Rep1)?
The value was 97.

What about the “remaining in liver microsomes” value ([4]; 60 min, Rep2) of the same molecule?
Its value is 94.

And the remaining binding at 1 µM [5]?
The remaining binding at 1 µM was 89%.

What about the “excess of plasma concentration over focal adhesion IC50” value [6] of the same molecule?
The value was 60 fold.

With `CCCCCCCCCCCCCC(=O)N[C@@H](CC(N)=O)C(=O)N[C@@H](CC(C)C)C(=O)N[C@]1(C)CCCCCCC=CCCC[C@@](C)(C(=O)N[C@@H](CCC(=O)O)C(=O)N[C@@H](CCC(=O)O)C(=O)N[C@@H](CC(N)=O)C(N)=O)NC(=O)[C@H](CC(C)C)NC(=O)[C@H](CC(C)C)NC(=O)[C@H](CCCNC(=N)N)NC(=O)[C@H](CC(=O)O)NC(=O)[C@H](CCC(=O)O)NC(=O)[C@H](CCC(=O)O)NC1=O` [compound 2020] (Myristoyl-NL[R8]EEDRLL[S5]EEN-NH2; staple 3-10) as the molecule, how does the IC50 [7] read?
Its IC50 is over 25 µM.

And the “LDH release, plasma membrane damage” value (SK-MEL-147 cells)?
Its value is “do not result in damage to plasma membrane”.

And the “LDH release, plasma membrane damage” value (WM88 cells)?
The value was “do not result in damage to plasma membrane”.

What about the remaining at 0.25 h, 100 µM (trypsin [8]) of the same molecule?
The remaining at 0.25 h, 100 µM was 97%.

And the remaining at 0.5 h, 100 µM (trypsin [8])?
Its remaining at 0.5 h, 100 µM is 99%.

What about the remaining at 1 h, 100 µM (trypsin [8]) of the same molecule?
The remaining at 1 h, 100 µM was 98%.

And the remaining at 2 h, 100 µM (trypsin [8])?
Its remaining at 2 h, 100 µM is 95%.

And the remaining at 3 h, 100 µM (trypsin [8])?
The remaining at 3 h, 100 µM was 90%.

What about the remaining at 4 h, 100 µM (trypsin [8]) of the same molecule?
The remaining at 4 h, 100 µM was 92%.

And the remaining at 6 h, 100 µM (trypsin [8])?
Its remaining at 6 h, 100 µM is 93%.

And the remaining at 8 h, 100 µM (trypsin [8])?
Its remaining at 8 h, 100 µM is 93%.

What about the remaining at 24 h, 100 µM (trypsin [8]) of the same molecule?
Its remaining at 24 h, 100 µM is 91%.

What about the remaining at 48 h, 100 µM (trypsin [8]) of the same molecule?
Its remaining at 48 h, 100 µM is 89%.

Which results are given for `CNC(=O)c1ccc(Nc2ncc(C(F)(F)F)c(NCc3nccnc3N(C)S(C)(=O)=O)n2)cc1` [defactinib]?
IC50 ([7]; Homo sapiens, SK-MEL-147, n = 3, read-out: IC50, reduction of FAK-containing focal adhesions): 11.1 µM; IC50 ([7]; Homo sapiens, SK-MEL-147, n = 3, read-out: IC50, reduction of dual FAK-paxillin containing focal adhesions): 11.2 µM; IC50 ([7]; Homo sapiens, SK-MEL-147, n = 3, read-out: IC50, reduction of paxillin-containing focal adhesions): 18.7 µM; number of kinases bound with more than 65% inhibition (kinases): ≥ 100; remaining binding at 1 µM [5]: 17%; additional kinases other than FAK inhibited [9]: 44; kinases inhibited >50% (interactions mapped) out of 97 tested [9]: 45; selectivity score S(1) ([9]; 90 non-mutant kinases): 0.033; selectivity score S(10) ([9]; 90 non-mutant kinases): 0.122; selectivity score S(35) ([9]; 90 non-mutant kinases): 0.256; Number of Hits, S(1) ([9]; %Ctrl <1, 90 non-mutant kinases): 3; Number of Hits, S(10) ([9]; %Ctrl <10, 90 non-mutant kinases): 11; Number of Hits, S(35) ([9]; %Ctrl <35, 90 non-mutant kinases): 23
